According to patent publication US7884131B2, “Oxylipins from long chain polyunsaturated fatty acids and methods of making and using the same” (Martek Biosciences, Corporation, priority 2004, dated 2011):
“Also recorded” adds a separate entry of the source.

Columns and labels:
[1] = tested on: Carrageenan-induced hind paw edema; test: Rat paw edema study with LCPUFA-containing diets; format: in vivo, Sprague Dawley rats; conditions: diets fed 4 weeks, 1% carrageenan, 3 hours post-injection, Day 28
Description: Adult, male, Sprague Dawley rats (n=10/treatment group) were fed modified AIN-76 diets formulated to include 1.2% DHA, 1.2% DHA+0.44% DPAn-6, or 1.2% DHA+0.46% arachidonic acid (ARA) for 4 weeks. Carrageenan (1%) was used to induce hind paw edema on Day 14 (left paw) and Day 28 (right paw) of feeding. Edema was measured plethysmographically using water displacement 3 hours post-injection. Similar results were obtained on day 14. *p≦0.05.

Soybean 15-lipoxygenase = biological target: T1, Soybean 15-lipoxygenase (Glycine max, UniProt P08170); test: 15-lipoxygenase reaction with LCPUFA substrates; format: biochemical; conditions: 100 μM fatty acid, 4 μg/ml enzyme, 0.05M sodium borate buffer pH 9.0, 0° C., absorbance at 238 nm
T1 construct: purchased Sigma-Aldrich
T1 sequence (P08170 1-839): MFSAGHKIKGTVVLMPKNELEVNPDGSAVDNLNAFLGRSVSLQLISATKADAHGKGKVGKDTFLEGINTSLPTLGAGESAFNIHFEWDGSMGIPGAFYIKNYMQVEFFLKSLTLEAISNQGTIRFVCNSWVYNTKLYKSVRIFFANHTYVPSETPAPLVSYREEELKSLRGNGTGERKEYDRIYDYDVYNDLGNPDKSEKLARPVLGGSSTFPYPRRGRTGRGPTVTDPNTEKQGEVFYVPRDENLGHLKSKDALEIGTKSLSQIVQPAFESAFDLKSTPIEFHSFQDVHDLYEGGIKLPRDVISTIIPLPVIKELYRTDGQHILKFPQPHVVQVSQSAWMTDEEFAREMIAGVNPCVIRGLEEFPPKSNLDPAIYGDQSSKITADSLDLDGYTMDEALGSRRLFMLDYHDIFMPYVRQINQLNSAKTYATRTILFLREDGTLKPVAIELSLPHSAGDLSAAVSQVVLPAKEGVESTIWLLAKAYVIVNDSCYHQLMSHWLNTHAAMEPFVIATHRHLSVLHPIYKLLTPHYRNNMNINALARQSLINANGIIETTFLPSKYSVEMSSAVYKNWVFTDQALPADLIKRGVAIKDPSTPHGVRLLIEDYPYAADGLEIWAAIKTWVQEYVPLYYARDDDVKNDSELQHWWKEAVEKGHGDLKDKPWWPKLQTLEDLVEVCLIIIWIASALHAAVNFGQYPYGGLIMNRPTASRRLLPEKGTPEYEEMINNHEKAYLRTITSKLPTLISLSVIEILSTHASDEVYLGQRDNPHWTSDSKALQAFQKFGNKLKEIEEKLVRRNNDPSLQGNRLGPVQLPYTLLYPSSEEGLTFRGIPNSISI
Description: Soybean 15-lipoxygenase (Sigma-Aldrich, St. Louis, Mo.) at a final concentration of 4 μg/ml was mixed into 100 μM solutions of DHA, DPAn-6, or DPAn-3 (NuChek Prep, Elysian, Minn.) in 0.05M sodium borate buffer, pH 9.0, and the reaction mixtures were incubated at 0° C. Appearance of the mono-hydroxy conjugated diene derivatives of the fatty acids was monitored through absorbance at 238 nm. Conjugated diene products were quantified using an extinction coefficient of 28,000 M^−1cm^−1 (Shimizu et al; Methods in Enzymology, 1990 Vol 187, 296-306). As shown in Example. 1, 100% of the DPAn-6 was efficiently converted to its conjugated diene derivative under these conditions, whereas about 85% of DPAn-3 and 50% of DHA were converted to their respective conjugated diene (mono-hydroxy) derivative by the 15-lipoxygenase. No appreciable accumulation of the dihydroxy derivatives occurred under these reaction conditions.

[2] = tested on: Inflammatory eicosanoid secretion; test: Consumption of LCPUFA oils: inflammatory eicosanoid secretion; format: in vivo; conditions: compared to DHA alone
[3] = tested on: inflammatory cytokine production; test: Consumption of LCPUFA oils: inflammatory cytokine production; format: in vivo; conditions: consumption of the oil; DHA dose approximately three times higher in DHA alone than in the DHA+DPAn-6 oil
IL-1β = test: Mouse dorsal air pouch model: IL-1β in exudates; format: in vivo, C57/B16 mice; conditions: 100 ng docosanoid intra-pouch, 100 ng TNFα, 4 hours after TNFα, ELISA
From the text: (§1) Pure 17R-hydroxy DHA (17R-HDHA) was purchased from Caymen Chemicals (Ann Arbor, Mich.). Docosanoids 17-hydroxy-DPAn-6 (17-HDPAn-6) and 10,17-dihydroxyDPAn-6 (10,17-HDPAn-6) were synthesized biogenically from DPAn-6 (NuChek Prep, Elysian, Minn.) using soybean 15-lipoxygenase (Sigma-Aldrich) and purified by HPLC as described in Example 2. Organic solvents were evaporated and the compounds were re-dissolved in phosphate buffered saline (PBS), filter sterilized and concentrations were adjusted to 1000 ng/ml using molar extinction coefficients of 28,000 and 40,000 M^−1cm^−1 for the mono- and dihydroxy docosanoids, respectively. Female C57/B16 mice (n=10 mice per group) were injected with sterile air subcutaneously in the back to initiate dorsal air pouches. Six days later, 0.9 ml sterile PBS followed by 100 ng docosanoid in 0.1 ml PBS or PBS alone were administered by intra-pouch injection. This injection was followed within 5 min by intra-pouch injection of 100 ng of mouse recombinant TNFα (Peprotech, Inc, NJ, USA) in 0.1 ml PBS. Control animals received no TNFα. As a positive control, 2 mg/kg indomethacin (Calbiochem, San Diego, Calif.) was administered intraperitoneally 30 min prior to administration of TNFα. Four hours after TNFα administration, air pouch exudates were removed and cells were stained with Turk's solution and counted. […]

[4] = tested on: total cell migration into air pouch exudates; test: Mouse dorsal air pouch model: total cell migration; format: in vivo, C57/B16 mice; conditions: 100 ng docosanoid intra-pouch, 100 ng TNFα, 4 hours after TNFα
From the text: as §1

[5] = tested on: macrophage chemotactic protein-1 (MCP-1); test: Mouse dorsal air pouch model: MCP-1 in exudates; format: in vivo, C57/B16 mice; conditions: 100 ng docosanoid intra-pouch, 100 ng TNFα, 4 hours after TNFα, ELISA
From the text: as §1

[6] = tested on: human T lymphocytes stimulated with anti-CD3/anti-CD28 antibodies; test: TNFα secretion by human T lymphocytes; format: cell-based; conditions: 6 hrs pretreatment, 41 hrs on anti-CD3/anti-CD28 coated wells, ELISA; difference at 10 nM p=0.037
Description: FIG. 22A: Effect of Docosanoids on TNFα Secretion by Human T Lymphocytes. The assay was performed essentially as described in Ariel et al, 2005. Briefly, human peripheral blood mononuclear cells were isolated from venous blood by Ficoll-Paque™ Plus (Amersham biosciences) gradient. T lymphocytes were isolated using a human T cell enrichment column (R&D Systems) per manufacturer's instructions. Purified T cells were treated with 10,17-dihydroxy DPAn-6 or 10,17-dihydroxy DHA or vehicle (0.05% ethanol) in RPMI-1640 media containing 10% heat inactivated fetal bovine serum for 6 hrs at 37° C. Lymphocytes (200,000 cells in 200 μl media per well) were then transferred to 96-well plates coated with both anti-CD3 antibody and anti-CD28 antibody (100 μl of 2 μg/ml of each antibody overnight to coat wells) and incubated for 41 hrs. TNFα concentrations were determined in cell supernatants by ELISA (R&D Systems). Group means±stdev (n=4) were compared by Student's t test. *p<0.05 and **p<0.01 compared to control; # indicates statistical difference (p=0.037) between the groups treated with 10,17-dihydroxy DPAn-6 and 10,17-dihydroxy DHA at the 10 nM concentrations.

Compound	converted to conjugated diene (mono-hydroxy) derivative by the 15-lipoxygenase (Soybean 15-lipoxygenase)	secretion of IL-1β in air pouch exudates (IL-1β)	total number of cells in the air pouch (cell infiltration) [4]	secretion of MCP-1 in air pouch exudates [5]	further results
CCCCC/C=C\C/C=C\C/C=C\C/C=C\CCCC(=O)O [ARA, arachidonic acid (C20:4n-6)]	–	–	–	–	reduction in edema volume [1]: reversed the anti-inflammatory activity of DHA
docosapentaenoic acid (C22:5n-6) [DPAn-6]	100%	–	–	–	Inflammatory eicosanoid secretion [2]: significantly reduced
CC/C=C\C/C=C\C/C=C\C/C=C\C/C=C\C/C=C\CCC(=O)O [DHA, docosahexaenoic acid (C22:6n-3), reference compound]	~50%	–	–	–	reduction in inflammatory cytokine production [3]: 13-29%
CC/C=C\C/C=C\C/C=C\C/C=C\C/C=C\CCCCCC(=O)O [DPAn-3, docosapentaenoic acid (C22:5n-3)]	about 85%	–	–	–	–
10,17-dihydroxy DPAn-6	–	significant reductions; also recorded: significantly larger than with that produced by either the DHA oxylipin derivative or indomethacin	significant reductions	significant reductions; also recorded: larger inhibition of MCP-1 secretion than indomethacin	reducing TNFα secretion by T lymphocytes [6]: more potent than the DHA analog (10,17,dihydroxy DHA)
CCCCCC(O)/C=C/C=C\C/C=C\C/C=C\C/C=C\CCC(=O)O (stereo not shown) [17-hydroxy DPAn-6]	–	significant reductions	significant reductions; also recorded: more potent than both 17R-hydroxy DHA and indomethacin	significant reductions; also recorded: larger inhibition of MCP-1 secretion than indomethacin	–
